The results in this text go back to ChEMBL document CHEMBL3045675, “Synthesis and structure-activity relationships of some pesticides with an alpha-amino acid function” (Biochim Biophys Acta, 1997).

Series [1] has as its system Vicia faba. The experiment in a line: Herbicidal activity against Vicia faba assessed as inhibition of 1 mM of [3H]sucrose uptake in leaf at 1 mM after 1 hr by liquid scintillation counting analysis relative to untreated control. It is filed as functional, organism-based.
Series [2] has as its system Vicia faba. The experiment in a line: Herbicidal activity against Vicia faba assessed as 1 mM of L-[3H]theronine uptake in leaf at 1 mM after 1 hr by liquid scintillation counting analysis relative to untreated control. It is filed as functional.
For series [3], the system named is Vicia faba. The experiment in a line: Herbicidal activity against Vicia faba assessed as 1 mM of L-[3H]theronine uptake in leaf at 10 mM after 1 hr by liquid scintillation counting analysis relative to untreated control. It is filed as functional.
In series [4] the test system is Vicia faba. The experiment in a line: Herbicidal activity against Vicia faba assessed as 1 mM of L-[3H]theronine uptake in leaf at 5 mM after 1 hr by liquid scintillation counting analysis relative to untreated control. It is filed as functional.
Series [5] has as its system Vicia faba. In words: Herbicidal activity against Vicia faba assessed as inhibition of 1 mM of L-[3H]theronine uptake in leaf at 1 mM after 1 hr by liquid scintillation counting analysis relative to untreated control. It is filed as functional.
Series [6] is described as follows: Octanol-water partition coefficient, log KOW of the compound. It is filed as physicochemical. Particulars: read-out: log KOW.
Series [7] is described as follows: Solubility in organic solvents. It is filed as physicochemical.
The nature of series [8]: Solubility in water. It is filed as physicochemical. To be noted: buffer.
Series [9] is described as follows: Solubility in hydrochloric acid. It is filed as physicochemical.
The subject of series [10] is Vicia faba. The experiment in a line: Herbicidal activity against Vicia faba assessed as inhibition of 1 mM of [U-14C]theronine uptake in mesophyll after 1 hr by autoradiographic analysis relative to untreated control. It is filed as functional, organism-based.
Series [11] deals with Vicia faba. In words: Herbicidal activity against Vicia faba assessed as inhibition of 1 mM of [U-14C]theronine uptake in veins after 1 hr by autoradiographic analysis relative to untreated control. It is filed as functional, organism-based.
The test system of series [12] is Vicia faba. In words: Herbicidal activity against Vicia faba assessed as 1 mM of L-[3H]lysine uptake in leaf at 1 mM after 1 hr by liquid scintillation counting analysis relative to untreated control. It is filed as functional, organism-based.
Series [13] concerns Vicia faba. The experiment in a line: Herbicidal activity against Vicia faba assessed as reduction in 10 mM threonine-induced depolarization of transmembrane potential difference in mesophyll cells at 1 mM after 1 hr by electrophysiological assay (reference value: 27.9 +/- 12.7 mV). It is filed as functional.
Series [14] deals with Vicia faba. In words: Herbicidal activity against Vicia faba assessed as 1 mM of L-[3H]glutamate uptake in leaf at 1 mM after 1 hr by liquid scintillation counting analysis relative to untreated control. It is filed as functional.
Series [15] relates to Vicia faba. The experiment in a line: Herbicidal activity against Vicia faba assessed as change in 12 mM KCl-induced depolarization of transmembrane potential difference in mesophyll cells at 1 mM after 1 hr by electrophysiological assay. It is filed as functional, organism-based.
The subject of series [16] is Vicia faba. In words: Herbicidal activity against Vicia faba assessed as inhibition of 1 mM of [U-14C]theronine loading in phloem after 1 hr by autoradiographic analysis relative to untreated control. It is filed as functional, organism-based.
Series [17] relates to Vicia faba. In words: Herbicidal activity against Vicia faba assessed as change in 10 mM sucrose-induced depolarization of transmembrane potential difference in mesophyll cells at 1 mM after 1 hr by electrophysiological assay (reference value: 9.2 +/- 7.1 mV). It is filed as functional.
The test system of series [18] is Vicia faba. The experiment in a line: Herbicidal activity against Vicia faba assessed as change in transmembrane potential difference in mesophyll cells at 1 mM after 1 hr by electrophysiological assay (reference value: - 154 +/- 13.2 mV). It is filed as functional.
For series [19], the system named is Vicia faba. The experiment in a line: Herbicidal activity against Vicia faba assessed as inhibition of 1 mM of L-[3H]glutamate uptake in leaf at pH 4 at 2.5 mM after 1 hr by liquid scintillation counting analysis. It is filed as functional.
The test system of series [20] is Vicia faba. In words: Herbicidal activity against Vicia faba assessed as inhibition of threonine uptake. It is filed as functional, organism-based. Particulars: read-out: Ki(app).
Series [21] concerns Vicia faba. The experiment in a line: Herbicidal activity against Vicia faba assessed as change in 10 mM sucrose-induced depolarization of transmembrane potential difference in mesophyll cells at 2.5 mM after 1 hr by electrophysiological assay relative to control. It is filed as functional, organism-based.
Series [22] has as its system Vicia faba. The experiment in a line: Herbicidal activity against Vicia faba assessed as decrease in 1 mM of L-[3H]lysine uptake in leaf at pH 3.5 at 2.5 mM after 1 hr by liquid scintillation counting analysis. It is filed as functional, organism-based.
The subject of series [23] is Vicia faba. The experiment in a line: Herbicidal activity against Vicia faba assessed as inhibition of 1 mM of L-[3H]threonine uptake in leaf at pH 4 at 2.5 mM after 1 hr by liquid scintillation counting analysis. It is filed as functional.
For series [24], the system named is Vicia faba. In words: Herbicidal activity against Vicia faba assessed as reduction in 10 mM threonine-induced depolarization of transmembrane potential difference in mesophyll cells at 2.5 mM after 1 hr by electrophysiological assay relative to control. It is filed as functional, organism-based.
In series [25] the test system is Vicia faba. The experiment in a line: Herbicidal activity against Vicia faba assessed as inhibition of 1 mM of L-[3H]lysine uptake in leaf at pH 4 at 2.5 mM after 1 hr by liquid scintillation counting analysis. It is filed as functional.
For series [26], the system named is Vicia faba. The experiment in a line: Herbicidal activity against Vicia faba assessed as decrease in 1 mM of L-[3H]glutamate uptake in leaf at pH 8 at 2.5 mM after 1 hr by liquid scintillation counting analysis. It is filed as functional, organism-based.
Series [27] has as its system Vicia faba. The experiment in a line: Herbicidal activity against Vicia faba assessed as 1 mM of L-[3H]theronine uptake in leaf at 5 uM after 1 hr by liquid scintillation counting analysis relative to untreated control. It is filed as functional.
Series [28] relates to Vicia faba. The experiment in a line: Herbicidal activity against Vicia faba assessed as change in 12 mM KCl-induced depolarization of transmembrane potential difference in mesophyll cells at 2.5 mM after 1 hr by electrophysiological assay. It is filed as functional, organism-based.
Series [29] concerns Vicia faba. In words: Herbicidal activity against Vicia faba assessed as decrease in 1 mM of L-[3H]lysine uptake in leaf at pH 8 at 2.5 mM after 1 hr by liquid scintillation counting analysis. It is filed as functional, organism-based.
The test system of series [30] is Vicia faba. The experiment in a line: Herbicidal activity against Vicia faba assessed as 1 mM of L-[3H]theronine uptake in leaf at 10 uM after 1 hr by liquid scintillation counting analysis relative to untreated control. It is filed as functional.
Series [31] concerns Vicia faba. The experiment in a line: Herbicidal activity against Vicia faba assessed as 1 mM of L-[3H]theronine uptake in leaf at 20 uM after 1 hr by liquid scintillation counting analysis relative to untreated control. It is filed as functional.

SMILES strings stand for the structures. Active and inactive are the calls of the source. The calls are words filed in the database; no cut-off is given here.

As for `N[C@@H](CCCCNC(=O)COc1ccc(Cl)cc1)C(=O)O` [L-LYSINE-4-CHLOROPHENOXYACETIC ACID], the inhibition result with Vicia faba [1] is “inactive”.

For `NCCCC[C@H](N)C(=O)O` [LYSINE], the Activity was 97% in the series with Vicia faba [2], 104% in the series on Vicia faba [3] and 99.6% in the series with Vicia faba [4].

In the case of `N[C@@H](CCCCNC(=O)COc1ccc([N+](=O)[O-])cc1)C(=O)O` [L-LYSINE-4-NITROPHENOXYACETICACID], in the series on Vicia faba [1], the inhibition result was “inactive”.

Turning to `Cc1cc(Cl)ccc1OCC(=O)NCCCC[C@H](N)C(=O)O` [L-LYSINE-2-METHYL-4-CHLOROROPHENOXYACETIC ACID], the inhibition result in the series with Vicia faba [1] was “inactive”. In addition, the inhibition entry in the series with Vicia faba [5] was “Active”. Besides, the logP in series [6] was -0.59. The solubility entry in [7] was “Insoluble”; in [8], “soluble”; in series [9], “soluble”.

As for `N[C@@H](CCC(=O)O)C(=O)O` [GLUTAMIC ACID], the Activity with Vicia faba [2] is recorded as 96.7%; with Vicia faba [3], 67.2%; in the series with Vicia faba [4], 76.2%.

With `CC(C)[C@H](N)C(=O)O` [VALINE], the Activity is given as 99.2% in the series on Vicia faba [2], 63.7% in the series with Vicia faba [3] and 77.4% with Vicia faba [4].

Take `N[C@@H](CCCCNC(=O)COc1ccccc1)C(=O)O` [L-LYSINE-PHENOXYACETIC ACID]: the inhibition entry in the series on Vicia faba [10], in the series on Vicia faba [11] and in the series with Vicia faba [12] was “Active” throughout. Moreover, in the series with Vicia faba [1], the inhibition entry was “inactive”.

For `N[C@@H](CCCCNC(=O)CCCOc1ccc(Cl)cc1Cl)C(=O)O`, the Activity with Vicia faba [13] is given as 10.2 mV; in the series with Vicia faba [17] it was 10.1 mV; in the series with Vicia faba [18] it was -161.9 mV. Also, the inhibition entry in the series on Vicia faba [1] is “inactive”. Also, the inhibition result with Vicia faba [14], with Vicia faba [12], with Vicia faba [5] and in the series with Vicia faba [16] was “Active” each time. Also, the result with Vicia faba [15] was inactive. The logP in series [6] was -0.49. The figures for the solubility result in series [7], in [8] and in [9] were “Insoluble”, “soluble” and “soluble”, respectively.

As for `N[C@H](CCCCNC(=O)COc1ccc(Cl)cc1Cl)C(=O)O` [D-LYSINE-2,4-DICHLOROPHENO-XYACETIC ACID], the inhibition entry in the series on Vicia faba [10] and in the series on Vicia faba [11] was “inactive” in each case. Besides, the Activity in the series on Vicia faba [2] turned out to be 74.2%.

Regarding `N[C@@H](CCCCNC(=O)COc1ccc(Cl)cc1Cl)C(=O)O`, the “inhibition (INH)” value in the series on Vicia faba [19] was 51%; in the series with Vicia faba [23], 79%; in the series with Vicia faba [25] it was 81%. Further, the Ki with Vicia faba [20] amounted to 500 µM. Moreover, the inhibition result in the series with Vicia faba [1] is “inactive”. The result with Vicia faba [21], in the series with Vicia faba [22], with Vicia faba [24] and with Vicia faba [28] was inactive. In addition, the inhibition entry with Vicia faba [14], in the series on Vicia faba [12] and in the series with Vicia faba [5] was “Active” in each case. Besides, the outcome in the series with Vicia faba [26] and in the series with Vicia faba [29] was Active. Besides, the Activity in the series with Vicia faba [27] is 91.8%; with Vicia faba [30], 91%; in the series with Vicia faba [31] it was 80.7%. In addition, the logP in [6] was -0.49. Also, the figures for the solubility result in series [7], in series [8] and in series [9] were “Insoluble”, “soluble” and “soluble”, respectively.

In the case of `Nc1ccc(OCC(=O)NCCCC[C@H](N)C(=O)O)cc1`, the inhibition entry in the series on Vicia faba [10] and in the series on Vicia faba [11] was “Active” in each case. Moreover, the inhibition result in the series with Vicia faba [1] and with Vicia faba [5] was “inactive” throughout. In addition, the logP in [6] was -3. For the same molecule, the solubility result in [7] is “Insoluble”; in [8], “soluble”; in series [9] it was “soluble”.
